# Measured values published in article PMC12736255, “Reinvestigating Pyrrol-2-One-Based Compounds: From Antimicrobial Agents to Promising Antitumor Candidates” (Pharmaceuticals, 2025).
# Legend:
# Test in all cases: NCI-60 single-dose screen
# Assay type in all cases: cell-based
# OVCAR-4 = settings: Homo sapiens; OVCAR-4, 10^–5 M; read-out: GI (%)
# Text: (§1) In the next step, all synthesized compounds were electronically submitted and accepted for testing to the National Cancer Institute (NCI) platform, for the single dose (10^−5 M) screening against a panel of 60 human tumor cell lines, representing leukemia, melanoma, and cancers of the lung, colon, central nervous system, ovary, kidney, prostate, and breast. The results are summarized in Table 2, with the best values highlighted in red (Figures S1–S14).
# SK-MEL-2 = settings: Homo sapiens; SK-MEL-2, 10^–5 M; read-out: GI (%)
# Text: as §1
# NCI-H460 = settings: Homo sapiens; NCI-H460, 10^–5 M; read-out: GI (%)
# Text: as §1
# T-47D = settings: Homo sapiens, T47D, 10^–5 M, read-out: GI (%)
# Text: as §1
# NCI-H23 = settings: Homo sapiens; NCI-H23, 10^–5 M; read-out: GI (%)
# Text: as §1
# TK-10 = settings: Homo sapiens; TK-10, 10^–5 M; read-out: GI (%)
# Text: as §1
# UACC-62 = settings: Homo sapiens; UACC-62, 10^–5 M; read-out: GI (%)
# Text: as §1
# A549/ATCC = settings: Homo sapiens, 10^–5 M, read-out: GI (%)
# Text: as §1
# HS 578T = settings: Homo sapiens, 10^–5 M, read-out: GI (%)
# Text: as §1
# CCRF-CEM = settings: Homo sapiens, 10^–5 M, read-out: GI (%)
# Text: as §1
# 786-0 = settings: Homo sapiens; 786-0, 10^–5 M; read-out: GI (%)
# Text: as §1
# HCT-116 = settings: Homo sapiens; HCT-116, 10^–5 M; read-out: GI (%)
# Text: as §1
# NCI-H322M = settings: Homo sapiens, 10^–5 M, read-out: GI (%)
# Text: as §1
# HT-29 = settings: Homo sapiens; HT-29, 10^–5 M; read-out: GI (%)
# Text: as §1
# HL-60(TB) = settings: Homo sapiens, 10^–5 M, read-out: GI (%)
# Text: as §1
# UACC-257 = settings: Homo sapiens; UACC-257, 10^–5 M; read-out: GI (%)
# Text: as §1
# OVCAR-3 = settings: Homo sapiens; OVCAR-3, 10^–5 M; read-out: GI (%)
# Text: as §1
# SW-620 = settings: Homo sapiens; SW-620, 10^–5 M; read-out: GI (%)
# Text: as §1
# NCI/ADR-RES = settings: Homo sapiens, 10^–5 M, read-out: GI (%)
# Text: as §1
# SF-268 = settings: Homo sapiens; SF-268, 10^–5 M; read-out: GI (%)
# Text: as §1
# MOLT-4 = settings: Homo sapiens; MOLT-4, 10^–5 M; read-out: GI (%)
# Text: as §1
# SR = settings: Homo sapiens, 10^–5 M, read-out: GI (%)
# Text: as §1
# LOX IMVI = settings: Homo sapiens, 10^–5 M, read-out: GI (%)
# Text: as §1
# SF-539 = settings: Homo sapiens; SF-539, 10^–5 M; read-out: GI (%)
# Text: as §1
# MCF7 = settings: Homo sapiens; MCF7, 10^–5 M; read-out: GI (%)
# Text: as §1
# SK-OV-3 = settings: Homo sapiens; SK-OV-3, 10^–5 M; read-out: GI (%)
# Text: as §1
# DU-145 = settings: Homo sapiens; DU-145, 10^–5 M; read-out: GI (%)
# Text: as §1
# K-562 = settings: Homo sapiens, K562; K-562, 10^–5 M; read-out: GI (%)
# Text: as §1
# SNB-75 = settings: Homo sapiens; SNB-75, 10^–5 M; read-out: GI (%)
# Text: as §1
# RPMI-8226 = settings: Homo sapiens; RPMI-8226, 10^–5 M; read-out: GI (%)
# Text: as §1
# MALME-3M = settings: Homo sapiens, 10^–5 M, read-out: GI (%)
# Text: as §1
# HCT-15 = settings: Homo sapiens; HCT-15, 10^–5 M; read-out: GI (%)
# Text: as §1
# IGROV1 = settings: Homo sapiens, IGROV-1; IGROV1, 10^–5 M; read-out: GI (%)
# Text: as §1
# NCI-H522 = settings: Homo sapiens; NCI-H522, 10^–5 M; read-out: GI (%)
# Text: as §1
# M14 = settings: Homo sapiens; M14, 10^–5 M; read-out: GI (%)
# Text: as §1
# MDA-MB-231/ATCC = settings: Homo sapiens, 10^–5 M, read-out: GI (%)
# Text: as §1
# HOP-92 = settings: Homo sapiens; HOP-92, 10^–5 M; read-out: GI (%)
# Text: as §1
# ACHN = settings: Homo sapiens, 10^–5 M, read-out: GI (%)
# Text: as §1
# SK-MEL-28 = settings: Homo sapiens; SK-MEL-28, 10^–5 M; read-out: GI (%)
# Text: as §1
SMILES,inhibition at 10 µM (OVCAR-4) [%],inhibition at 10 µM (SK-MEL-2) [%],inhibition at 10 µM (NCI-H460) [%],inhibition at 10 µM (T-47D) [%],inhibition at 10 µM (NCI-H23) [%],inhibition at 10 µM (TK-10) [%],inhibition at 10 µM (UACC-62) [%],inhibition at 10 µM (A549/ATCC) [%],inhibition at 10 µM (HS 578T) [%],inhibition at 10 µM (CCRF-CEM) [%],inhibition at 10 µM (HCT-116) [%],inhibition at 10 µM (NCI-H322M) [%],inhibition at 10 µM (HT-29) [%],inhibition at 10 µM (HL-60(TB)) [%],inhibition at 10 µM (UACC-257) [%],inhibition at 10 µM (OVCAR-3) [%],inhibition at 10 µM (SW-620) [%],inhibition at 10 µM (NCI/ADR-RES) [%],inhibition at 10 µM (SF-268) [%],inhibition at 10 µM (MOLT-4) [%],other results
O=C1C(Nc2ccc(I)cc2)=CC(c2ccc(Cl)cc2)N1c1ccc(I)cc1 (centres unmarked) [3c],34,43,7,48,13,1,5,4,55,15,25,0,19,0,23,9,12,1,24,29,inhibition at 10 µM (786-0): 18%; inhibition at 10 µM (SR): 41%; inhibition at 10 µM (LOX IMVI): 11%; inhibition at 10 µM (SF-539): 11%; inhibition at 10 µM (MCF7): 47%; inhibition at 10 µM (SK-OV-3): 13%; inhibition at 10 µM (DU-145): 10%; inhibition at 10 µM (K-562): 10%; inhibition at 10 µM (SNB-75): 12%; inhibition at 10 µM (RPMI-8226): 30%; inhibition at 10 µM (MALME-3M): 17%; inhibition at 10 µM (HCT-15): 13%; inhibition at 10 µM (IGROV1): 16%; inhibition at 10 µM (NCI-H522): 24%; inhibition at 10 µM (M14): 0%; inhibition at 10 µM (MDA-MB-231/ATCC): 5%; inhibition at 10 µM (HOP-92): 27%; inhibition at 10 µM (ACHN): 21%; inhibition at 10 µM (SK-MEL-28): 12%
O=C1C(Nc2ccc(I)cc2)=CC(c2ccc(O)cc2)N1c1ccc(I)cc1 (centres unmarked) [3g],85,56,69,80,45,43,33,22,100,94,61,20,96,75,42,59,56,44,35,100,inhibition at 10 µM (SR): 100%; inhibition at 10 µM (LOX IMVI): 44%; inhibition at 10 µM (SF-539): 69%; inhibition at 10 µM (MCF7): 83%; inhibition at 10 µM (SK-OV-3): 25%; inhibition at 10 µM (DU-145): 58%; inhibition at 10 µM (K-562): 78%; inhibition at 10 µM (SNB-75): 77%; inhibition at 10 µM (RPMI-8226): 100%; inhibition at 10 µM (MALME-3M): 83%; inhibition at 10 µM (HCT-15): 84%; inhibition at 10 µM (IGROV1): 27%; inhibition at 10 µM (NCI-H522): 70%; inhibition at 10 µM (M14): 52%; inhibition at 10 µM (MDA-MB-231/ATCC): 44%; inhibition at 10 µM (HOP-92): 66%; inhibition at 10 µM (SK-MEL-28): 42%
COc1ccccc1C1C=C(Nc2ccc(I)cc2)C(=O)N1c1ccc(I)cc1 (centres unmarked) [3i],60,44,9,39,30,30,21,6,84,0,3,0,5,0,13,46,14,3,24,17,inhibition at 10 µM (SR): 23%; inhibition at 10 µM (LOX IMVI): 2%; inhibition at 10 µM (SF-539): 31%; inhibition at 10 µM (MCF7): 50%; inhibition at 10 µM (SK-OV-3): 19%; inhibition at 10 µM (DU-145): 13%; inhibition at 10 µM (K-562): 9%; inhibition at 10 µM (SNB-75): 37%; inhibition at 10 µM (RPMI-8226): 32%; inhibition at 10 µM (MALME-3M): 45%; inhibition at 10 µM (HCT-15): 13%; inhibition at 10 µM (IGROV1): 57%; inhibition at 10 µM (NCI-H522): 37%; inhibition at 10 µM (M14): 10%; inhibition at 10 µM (MDA-MB-231/ATCC): 25%; inhibition at 10 µM (HOP-92): 20%; inhibition at 10 µM (SK-MEL-28): 12%
